The subject of one assay is BEN. As to the kind of experiment: relative viability (nuclei count vs DMSO), 5 days (fraction); higher = more cells survive. The settings on record: first compound 6.325 µM. The procedure, abridged: (§1)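 Values are medians from duplicate plates. Each reflects relative viability, defined as the nuclei count of treated wells over that of vehicle wells. Lung cancer cell lines in 1536-well plates were pin-tool dosed one day after seeding with one drug alone or with a fixed anchor-drug dose plus five library-drug doses (not always all listed) in √10 steps, then fixed, stained and imaged at 4× after 5 days.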
On to `COCC1(CO)C(=O)C2CCN1CC2` (stereo not given) [PRIMA-1MET] + CCNC(=O)c1noc(-c2cc(C(C)C)c(O)cc2O)c1-c1ccc(CN2CCOCC2)cc1 [Luminespib] (partner 0.01 µM), for which the relative viability is 0.24.
Still for that read-out and setting: the result for `COCC1(CO)C(=O)C2CCN1CC2` (stereo not given) [PRIMA-1MET] + CC(=O)c1c(C)c2cnc(Nc3ccc(N4CCNCC4)cn3)nc2n(C2CCCC2)c1=O [Palbociclib] (partner 0.5 µM) reads 0.463; that for `COCC1(CO)C(=O)C2CCN1CC2` (stereo not given) [PRIMA-1MET] + Cc1nc(Nc2ncc(C(=O)Nc3c(C)cccc3Cl)s2)cc(N2CCN(CCO)CC2)n1 [Dasatinib] (partner 0.075 µM), 0.271.

The same assay, now with this note: first compound 20 µM.
The compound `COCC1(CO)C(=O)C2CCN1CC2` (stereo not given) [PRIMA-1MET] + CS(=O)(=O)N1CCN(Cc2cc3nc(-c4cccc5[nH]ncc45)nc(N4CCOCC4)c3s2)CC1 [Pictilisib] (partner 1 µM) registered a relative viability of 0.464.
On to `COCC1(CO)C(=O)C2CCN1CC2` (stereo not given) [PRIMA-1MET] + CCNC(=O)c1noc(-c2cc(C(C)C)c(O)cc2O)c1-c1ccc(CN2CCOCC2)cc1 [Luminespib] (partner 0.01 µM), for which the relative viability stood at 0.18.
For the compound `COCC1(CO)C(=O)C2CCN1CC2` (stereo not given) [PRIMA-1MET] + CC(=O)c1c(C)c2cnc(Nc3ccc(N4CCNCC4)cn3)nc2n(C2CCCC2)c1=O [Palbociclib] (partner 0.5 µM), the relative viability was determined as 0.437.
On the same count and under the same terms, the same measure for `COCC1(CO)C(=O)C2CCN1CC2` (stereo not given) [PRIMA-1MET] + Cc1nc(Nc2ncc(C(=O)Nc3c(C)cccc3Cl)s2)cc(N2CCN(CCO)CC2)n1 [Dasatinib] (partner 0.075 µM): 0.339.

The subject of the next assay is EKVX. The description is as above. The settings on record: first compound 0.2 µM. The procedure, abridged: as §1
The compound `COCC1(CO)C(=O)C2CCN1CC2` (stereo not given) [PRIMA-1MET] + CS(=O)(=O)N1CCN(Cc2cc3nc(-c4cccc5[nH]ncc45)nc(N4CCOCC4)c3s2)CC1 [Pictilisib] (partner 1 µM) showed a relative viability of 0.475.
Compound `COCC1(CO)C(=O)C2CCN1CC2` (stereo not given) [PRIMA-1MET] + CCNC(=O)c1noc(-c2cc(C(C)C)c(O)cc2O)c1-c1ccc(CN2CCOCC2)cc1 [Luminespib] (partner 0.01 µM) showed a relative viability of 1.03.
Take `COCC1(CO)C(=O)C2CCN1CC2` (stereo not given) [PRIMA-1MET] + CC(=O)c1c(C)c2cnc(Nc3ccc(N4CCNCC4)cn3)nc2n(C2CCCC2)c1=O [Palbociclib] (partner 0.5 µM): the relative viability amounted to 0.42.
Turning to `COCC1(CO)C(=O)C2CCN1CC2` (stereo not given) [PRIMA-1MET] + Cc1nc(Nc2ncc(C(=O)Nc3c(C)cccc3Cl)s2)cc(N2CCN(CCO)CC2)n1 [Dasatinib] (partner 0.075 µM), the relative viability is 0.469.

Still in this assay, the particulars now being: first compound 0.6325 µM.
As to `COCC1(CO)C(=O)C2CCN1CC2` (stereo not given) [PRIMA-1MET] + CS(=O)(=O)N1CCN(Cc2cc3nc(-c4cccc5[nH]ncc45)nc(N4CCOCC4)c3s2)CC1 [Pictilisib] (partner 1 µM), the relative viability was 0.458.
Turning to `COCC1(CO)C(=O)C2CCN1CC2` (stereo not given) [PRIMA-1MET] + CCNC(=O)c1noc(-c2cc(C(C)C)c(O)cc2O)c1-c1ccc(CN2CCOCC2)cc1 [Luminespib] (partner 0.01 µM), the relative viability was found to be 0.808.
For the compound `COCC1(CO)C(=O)C2CCN1CC2` (stereo not given) [PRIMA-1MET] + Cc1nc(Nc2ncc(C(=O)Nc3c(C)cccc3Cl)s2)cc(N2CCN(CCO)CC2)n1 [Dasatinib] (partner 0.075 µM), the relative viability was 0.482.

Staying with this assay, now noted: first compound 2 µM.
As to `COCC1(CO)C(=O)C2CCN1CC2` (stereo not given) [PRIMA-1MET] + CS(=O)(=O)N1CCN(Cc2cc3nc(-c4cccc5[nH]ncc45)nc(N4CCOCC4)c3s2)CC1 [Pictilisib] (partner 1 µM), the relative viability was 0.328.
Consider `COCC1(CO)C(=O)C2CCN1CC2` (stereo not given) [PRIMA-1MET] + CC(=O)c1c(C)c2cnc(Nc3ccc(N4CCNCC4)cn3)nc2n(C2CCCC2)c1=O [Palbociclib] (partner 0.5 µM), for which the relative viability came out at 0.346.
In turn, `COCC1(CO)C(=O)C2CCN1CC2` (stereo not given) [PRIMA-1MET] + Cc1nc(Nc2ncc(C(=O)Nc3c(C)cccc3Cl)s2)cc(N2CCN(CCO)CC2)n1 [Dasatinib] (partner 0.075 µM) displayed a relative viability of 0.468.

The assay is the same for the next values; noted with them: first compound 6.325 µM.
`COCC1(CO)C(=O)C2CCN1CC2` (stereo not given) [PRIMA-1MET] + CS(=O)(=O)N1CCN(Cc2cc3nc(-c4cccc5[nH]ncc45)nc(N4CCOCC4)c3s2)CC1 [Pictilisib] (partner 1 µM) gave a relative viability of 0.489.
As to `COCC1(CO)C(=O)C2CCN1CC2` (stereo not given) [PRIMA-1MET] + CCNC(=O)c1noc(-c2cc(C(C)C)c(O)cc2O)c1-c1ccc(CN2CCOCC2)cc1 [Luminespib] (partner 0.01 µM), the relative viability was found to be 0.805.
On the same count and under the same terms, the result for `COCC1(CO)C(=O)C2CCN1CC2` (stereo not given) [PRIMA-1MET] + CC(=O)c1c(C)c2cnc(Nc3ccc(N4CCNCC4)cn3)nc2n(C2CCCC2)c1=O [Palbociclib] (partner 0.5 µM) reads 0.368; that for `COCC1(CO)C(=O)C2CCN1CC2` (stereo not given) [PRIMA-1MET] + Cc1nc(Nc2ncc(C(=O)Nc3c(C)cccc3Cl)s2)cc(N2CCN(CCO)CC2)n1 [Dasatinib] (partner 0.075 µM), 0.518.

Staying with this assay, now noted: first compound 20 µM.
For the compound `COCC1(CO)C(=O)C2CCN1CC2` (stereo not given) [PRIMA-1MET] + CS(=O)(=O)N1CCN(Cc2cc3nc(-c4cccc5[nH]ncc45)nc(N4CCOCC4)c3s2)CC1 [Pictilisib] (partner 1 µM), the relative viability is 0.356.
`COCC1(CO)C(=O)C2CCN1CC2` (stereo not given) [PRIMA-1MET] + CCNC(=O)c1noc(-c2cc(C(C)C)c(O)cc2O)c1-c1ccc(CN2CCOCC2)cc1 [Luminespib] (partner 0.01 µM): the relative viability was 0.729.
The same measure, in the same setting: the result for `COCC1(CO)C(=O)C2CCN1CC2` (stereo not given) [PRIMA-1MET] + CC(=O)c1c(C)c2cnc(Nc3ccc(N4CCNCC4)cn3)nc2n(C2CCCC2)c1=O [Palbociclib] (partner 0.5 µM) reads 0.321; that for `COCC1(CO)C(=O)C2CCN1CC2` (stereo not given) [PRIMA-1MET] + Cc1nc(Nc2ncc(C(=O)Nc3c(C)cccc3Cl)s2)cc(N2CCN(CCO)CC2)n1 [Dasatinib] (partner 0.075 µM), 0.564.

The values above are taken from the supplement of paper PMC10307832.
